Measurements published in US8518876B2, “Composition for long-acting peptide analogs” (Pharmaln Corporation, priority 2007, dated 2013).
Where a SMILES comes first, the peptide text is derived from it. Bridges are numbered along the chain shown (N, C = ends). [ ]: non-standard residue; d: D form. The star is where a group is joined. ξ: configuration not given here. Lauroyl = CCCCCCCCCCCC(=O)*; Octanoyl = CCCCCCCC(=O)*; ξLac = CC(O)C(=O)O

Key:
[1] = test system: human umbilical chord artery endothelial cells (HUAEC); assay: Ca-influx after vasopressin analog stimulation of HUAEC, samples pre-incubated in human serum; format: cell-based; set-up: key to Activity of Various Vasopressin Analogs, 0 h / Activity of Various Vasopressin Analogs, 1 h / Activity of Various Vasopressin Analogs, 2 h / Activity of Various Vasopressin Analogs, 4 h: “−” for no detectable activity; “+” to “+++” for slight to high activity; “+” to “+++” for slight to high activity; “+” to “+++” for slight to high activity; details: for Activity of Various Vasopressin Analogs, 0 h: 0 h pre-incubation in pooled human serum at 37° C. (serum present); for Activity of Various Vasopressin Analogs, 0 h / Activity of Various Vasopressin Analogs, 1 h / Activity of Various Vasopressin Analogs, 2 h / Activity of Various Vasopressin Analogs, 4 h: Ca-influx in HUAEC, 50 nM per well; for Activity of Various Vasopressin Analogs, 1 h: 1 h pre-incubation in pooled human serum at 37° C.; for Activity of Various Vasopressin Analogs, 2 h: 2 h pre-incubation in pooled human serum at 37° C.; for Activity of Various Vasopressin Analogs, 4 h: 4 h pre-incubation in pooled human serum at 37° C.; for course of activity on incubation in human serum: in words
Excerpt: Ca-influx after vasopressin analog stimulation of human umbilical chord artery endothelial cells (HUAEC) was used to test the biological activity of the various vasopressin analogs. The material used were: 75 cm^2 tissue culture flasks, BD Bioscience, Bedford Mass. (catalogue number 137787) with 0.2 μm vented blue plug seal caps (catalogue number 353136); human umbilical artery endothelial cells (HUAEC), Lonza, Walkersville, Md. (catalogue number CC-2520); EGM-2 fully supplement medium, Lonza, Walkersville, Md. (catalogue number CC-3162); Fura-2 AM, Invitrogen/Molecular Probes, Carlsbad, Calif. (catalogue number F-1221) (Fura-2 AM is a high affinity, intracellular calcium indicator that is ratiometric and UV light-excitable; the acetoxymethyl (AM) ester form is useful for noninvasive intracellular loading as it is cell permeable. Once inside the cell the ester is clipped which renders the Fura-2 molecule cell impermeable and therefore trapped inside.); terlipressin derivatives custom made by Anaspec, San Jose Calif., according to inventors specifications; pooled human serum, Sigma, St. Louis, Mo. (catalogue number H4522); phosphate buffered saline (PBS), Fisher Scientific, Fair Lawn, N.J. (catalogue number BP399-500); trypsin-EDTA solution, 0.25%, Invitrogen/Gibco, Carlsbad, Calif. (catalogue number 25200-072); heat inactivated fetal bovine serum (FBS), Invitrogen/Gibco, Carlsbad, Calif. (catalogue number 10438-026); black polystyrene 96 well flat-bottom assay plates, Corning Inc., Corning, N.Y. (catalogue number 3916); Chameleon plate multilabel detection reader, Hidex, Turku, Finland, distributed by Bioscan, Washington, D.C.; dimethyl sulfoxide (DMSO), Fisher Scientific, Fair Lawn, N.J. (catalogue number D-136-1).
The methods used for tissue or cell culture are as follows: a vial of HUAEC (>0.5×10^6 cells) was thawed and seeded in two 75 cm^2 flasks with 15 ml EGM-2 medium each. Cells were grown over night and medium was changed. Media in the flasks were changed on a Monday, Wednesday, Friday schedule. Cells were split at approximately 80% confluency (using trypsin). Media were removed and the flasks were washed with 10 ml 1×PBS. The PBS was removed, 1.5 ml trypsin-EDTA solution was added and incubated for 5 min at 37° C. Three ml of FBS added and the cells were counted. The cells were centrifuged at 200×G for 5 min, resuspended in EGM-2 medium and distributed into new 75 cm2 flasks @ 3000-5000 cells per cm2.
To prepare for the Ca2+-influx assay, cells were distributed into one black 96 well plate @ 10^5 cells/well. Cells were allowed to adhere overnight and the medium was then removed. Fifty μg Fura-2 was dissolved in 50 μl DMSO and added to 10 ml PBS/2% FBS. The cells were stained with 20 μl of 5 μg/ml Fura-2 in PBS/2% FBS for 2 h, then 180 μl EGM-2 medium supplemented with CaCl2 and glucose was added (10 mM CaCl2 and 11.1 mM glucose final concentrations).
To prepare analogs for testing, 50 uM terlipressin (or derivative) stock solution in DMSO was prepared. […] (placed on ice after incubation).
To measure Ca-influx, Fura-2 fluorescence was measured for 4 repetitions per well at 340 nm ex/510 nm em and 420 nm ex/510 nm em (4 measurement before and 16 after injection of drug. At t=12 sec, 20 μl of terlipressin or derivative was injected as a 500 nM solution (or serum) for a final concentration of 50 nM per well. Fura-2 fluorescence was measured for […] per well at 340 nm ex/510 nm em and 420 nm ex/510 nm em (4 measurements before and 16 after injection of drug). The controls included injected human serum alone, and terlipressin or derivative dissolved in PBS as […]. All measurements were done in hexuplicate.
Data analysis was done using Graphpad Prism version 5.0 software (Graphpad software Inc, San Diego, Calif.). […]

[2] = Solubility in water of the synthesized peptide; format: physicochemical; details: in words
[3] = test system: rat ear model; assay: Rat ear model, maintenance of vasoconstriction (paleness of ears) after subcutaneous injection; format: in vivo; details: for loss of paleness after: subcutaneous injection, ears examined after 6 and 24 h
Experimental: Using a rat ear model, a vasopressin analog with metal binding moiety of the present invention, His6Ter (“His6” disclosed as SEQ ID NO: 52), was evaluated for it ability to maintain vasoconstriction for an extended period of time. The analog was formulated at a 2% load in polymeric carrier containing 40PLPEG537-Zn-chelate. The peptide analog-polymeric complex was injected subcutaneously into the back of one set of rats, while terlipressin alone was also injected similarly in another set of rats. The ears were examined at baseline and at intervals up to 48 h.
Using the same model, the effects of delayed release of biologically-active lysine vasopressin from the peptide analog His6Ter (“His6” disclosed as SEQ ID NO: 52), with or without complexing in polymeric carrier, was tested. In the experiment, terlipressin was conjugated with a his tag metal binding moiety to result in the His6Ter peptide analog (“His6” disclosed as SEQ ID NO: 52). A portion of the His6Ter analog (“His6” disclosed as SEQ ID NO: 52) was formulated at 2% loading in 40PLPEG537-Zn-chelate. The three test materials were injected subcutaneously into groups of rats and the ears were examined after 6 and 24 h.

[4] = cited from earlier work

Row | Structure (SMILES) | Activity of Various Vasopressin Analogs, 0 h [1] | Activity of Various Vasopressin Analogs, 1 h [1] | Activity of Various Vasopressin Analogs, 2 h [1] | Activity of Various Vasopressin Analogs, 4 h [1] | solubility in water [2] | further results
1 | CCCCCCCC(=O)NCC(=O)NCC(=O)NCC(=O)N[C@H]1CSSC[C@@H](C(=O)N2CCC[C@H]2C(=O)N[C@@H](CCCCN)C(=O)NCC(N)=O)NC(=O)[C@H](CC(N)=O)NC(=O)[C@H](CCC(N)=O)NC(=O)[C@H](Cc2ccccc2)NC(=O)[C@H](Cc2ccc(O)cc2)NC1=O [C8TerA, CH3(CH2)6CO-Gly-Gly-Gly-Cys-Tyr-Phe-Gln-Asn-Cys-Pro-Lys-Gly-NH2] (Octanoyl-GGGCYFQNCPKG-NH2; disulfide 4-9) | +++ | +++ | +++ | +++ | water soluble | 
2 | CCCCCCCC(=O)OC(C)C(=O)NCC(=O)NCC(=O)NCC(=O)N[C@H]1CSSC[C@@H](C(=O)N2CCC[C@H]2C(=O)N[C@@H](CCCCN)C(=O)NCC(N)=O)NC(=O)[C@H](CC(N)=O)NC(=O)[C@H](CCC(N)=O)NC(=O)[C@H](Cc2ccccc2)NC(=O)[C@H](Cc2ccc(O)cc2)NC1=O (stereo partly drawn) [C8TerE, CH3(CH2)6CO—OHC(CH3)CO-Gly-Gly-Gly-Cys-Tyr-Phe-Gln-Asn-Cys-Pro-Lys-Gly-NH2] (Octanoyl-[ξLac]GGGCYFQNCPKG-NH2; disulfide 5-10) |  |  |  |  | water soluble | 
3 | CCCCCCCCCCCC(=O)OC(C)C(=O)NCC(=O)NCC(=O)NCC(=O)N[C@H]1CSSC[C@@H](C(=O)N2CCC[C@H]2C(=O)N[C@@H](CCCCN)C(=O)NCC(N)=O)NC(=O)[C@H](CC(N)=O)NC(=O)[C@H](CCC(N)=O)NC(=O)[C@H](Cc2ccccc2)NC(=O)[C@H](Cc2ccc(O)cc2)NC1=O (stereo partly drawn) [C12TerE, CH3(CH2)10CO—OHC(CH3)CO-Gly-Gly-Gly-Cys-Tyr-Phe-Gln-Asn-Cys-Pro-Lys-Gly-NH2] (Lauroyl-[ξLac]GGGCYFQNCPKG-NH2; disulfide 5-10) | +++ | + | − | − | limited solubility in water | 
4 | NCCCC[C@H](NC(=O)[C@@H]1CCCN1C(=O)[C@@H]1CSSC[C@H](NC(=O)CNC(=O)CNC(=O)CNC(=O)[C@H](Cc2c[nH]cn2)NC(=O)[C@H](Cc2c[nH]cn2)NC(=O)[C@@H](N)Cc2c[nH]cn2)C(=O)N[C@@H](Cc2ccc(O)cc2)C(=O)N[C@@H](Cc2ccccc2)C(=O)N[C@@H](CCC(N)=O)C(=O)N[C@@H](CC(N)=O)C(=O)N1)C(=O)NCC(N)=O [His3Ter, His-His-His-Gly-Gly-Gly-Cys-Tyr-Phe-Gln-Asn-Cys-Pro-Lys-Gly-NH2] (H-HHHGGGCYFQNCPKG-NH2; disulfide 7-12) |  |  |  |  | water soluble | 
5 | N=C(N)NCCC[C@H](NC(=O)[C@@H]1CCCN1C(=O)[C@@H]1CSSC[C@H](NC(=O)CNC(=O)CNC(=O)CNC(=O)[C@H](Cc2c[nH]cn2)NC(=O)[C@H](Cc2c[nH]cn2)NC(=O)[C@@H](N)Cc2c[nH]cn2)C(=O)N[C@@H](Cc2ccc(O)cc2)C(=O)N[C@@H](Cc2ccccc2)C(=O)N[C@@H](CCC(N)=O)C(=O)N[C@@H](CC(N)=O)C(=O)N1)C(=O)NCC(N)=O [His3Vas, His-His-His-Gly-Gly-Gly-Cys-Tyr-Phe-Gln-Asn-Cys-Pro-Arg-Gly-NH2] (H-HHHGGGCYFQNCPRG-NH2; disulfide 7-12) |  |  |  |  | water soluble | 
6 | NCCCC[C@H](NC(=O)[C@@H]1CCCN1C(=O)[C@@H]1CSSC[C@H](NC(=O)CNC(=O)CNC(=O)CNC(=O)[C@H](Cc2c[nH]cn2)NC(=O)[C@H](Cc2c[nH]cn2)NC(=O)[C@H](Cc2c[nH]cn2)NC(=O)[C@H](Cc2c[nH]cn2)NC(=O)[C@H](Cc2c[nH]cn2)NC(=O)[C@@H](N)Cc2c[nH]cn2)C(=O)N[C@@H](Cc2ccc(O)cc2)C(=O)N[C@@H](Cc2ccccc2)C(=O)N[C@@H](CCC(N)=O)C(=O)N[C@@H](CC(N)=O)C(=O)N1)C(=O)NCC(N)=O [His6Ter, His-His-His-His-His-His-Gly-Gly-Gly-Cys-Tyr-Phe-Gln-Asn-Cys-Pro-Lys-Gly-NH2] (H-HHHHHHGGGCYFQNCPKG-NH2; disulfide 10-15) |  |  |  |  | water soluble | loss of paleness after [3]: 6 h
7 | N=C(N)NCCC[C@H](NC(=O)[C@@H]1CCCN1C(=O)[C@@H]1CSSC[C@H](NC(=O)CNC(=O)CNC(=O)CNC(=O)[C@H](Cc2c[nH]cn2)NC(=O)[C@H](Cc2c[nH]cn2)NC(=O)[C@H](Cc2c[nH]cn2)NC(=O)[C@H](Cc2c[nH]cn2)NC(=O)[C@H](Cc2c[nH]cn2)NC(=O)[C@@H](N)Cc2c[nH]cn2)C(=O)N[C@@H](Cc2ccc(O)cc2)C(=O)N[C@@H](Cc2ccccc2)C(=O)N[C@@H](CCC(N)=O)C(=O)N[C@@H](CC(N)=O)C(=O)N1)C(=O)NCC(N)=O [His6Vas, His-His-His-His-His-His-Gly-Gly-Gly-Cys-Tyr-Phe-Gln-Asn-Cys-Pro-Arg-Gly-NH2] (H-HHHHHHGGGCYFQNCPRG-NH2; disulfide 10-15) |  |  |  |  | water soluble | 
8 | NCCCC[C@H](NC(=O)[C@@H]1CCCN1C(=O)[C@@H]1CSSC[C@H](NC(=O)CNC(=O)CNC(=O)CN)C(=O)N[C@@H](Cc2ccc(O)cc2)C(=O)N[C@@H](Cc2ccccc2)C(=O)N[C@@H](CCC(N)=O)C(=O)N[C@@H](CC(N)=O)C(=O)N1)C(=O)NCC(N)=O [Terlipressin, reference compound] (H-GGGCYFQNCPKG-NH2; disulfide 4-9) | +++ | + | − | − |  | course of activity on incubation in human serum [1]: loses its activity quickly; course of activity on incubation in human serum ([1]; listed as terlipressin): losses activity immediately afterwards; ear colour at 6 h ([3]; subcutaneous injection into the back, 6 h): pale; ear colour at 24 h ([3]; subcutaneous injection into the back, 24 h): returned to a baseline color; loss of paleness after [3]: 6 h
9 | NC(=O)CC[C@@H]1NC(=O)[C@H](Cc2ccccc2)NC(=O)[C@H](Cc2ccc(O)cc2)NC(=O)[C@@H](N)CSSC[C@@H](C(=O)N2CCC[C@H]2C(=O)N[C@@H](CCCN=C(N)N)C(=O)NCC(N)=O)NC(=O)[C@H](CC(N)=O)NC1=O [vasopressin] |  |  |  |  |  | half-life [4]: 24 min
